Results from US9889126B2, “Use of naratriptan in the treatment of rosacea” (GALDERMA RESEARCH & DEVELOPMENT, priority 2013, dated 2018).

Tests used:
[1] = Release and penetration into dermatomized human skin (Franz cells); assay type: in vitro ADME; conditions: 2% in PBS; for Mass balance: mean
human subcutaneous veins = experiment: Vascular tonicity of human subcutaneous veins ex vivo, myography; assay type: cell-based; conditions: for EC50 / Emax (% max. contraction vs. 80 mM KCL): human subcutaneous vein, n=1; for EC50: dose-response
Procedure: (§1) Human subcutaneous veins are isolated from healthy human skin derived from plastic surgery operative waste (abdominal plasty). On receipt the skin sample is held at 4° C. in a receptacle containing physiological saline solution (PSS) 1× at pH=7.4. Dissection, isolation and mounting of the veins are conducted in cold PSS pH=7.4 using straight forceps and a stereomicroscope. Once the vein is isolated and cleaned of surrounding fat and conjunctive tissue, a segment 2 mm in length and diameter of between 100 and 600 μm is mounted in the myograph chamber between two 40 μm tungsten wires attached to removable jaws connected to the tension sensor and held in physiological saline solution (PSS) at pH=7.4 and 37° C. To perform the myography study the vein is placed at working pre-tension (g) corresponding to physiological pressure of 18 mmHg. Pre-tensioning is obtained by mechanical action to draw apart the tungsten wires (40 μm). The viability of the vessel is verified by depolarising the membrane of the vessel smooth muscle cells by increasing the concentration of potassium in the chamber. To do so the PSS solution contained in each chamber is replaced by a solution containing 80 mM KCl at pH=7.4 and pre-heated to 37° C. This step must be repeated twice with 1×PSS washing to cause relaxation between each contraction. At this stage if there is no change in measured tension the isolated vessel is considered non-viable. Naratriptan was evaluated by dose-response (n=1) to determine its maximum contraction intensity (Emax) and strength (EC50). The vessel was treated with increasing successive doses of product added every 3 minutes to the myograph chamber. Tension data (g) are successively converted to: • Tension (mN) 1 g=9.81 mN • Tension applied to the vessel wall (mN/mm): by dividing the tension value in mN by twice the length of the vessel i.e. 4 mm.
(§2) Data are then expressed for the vasoconstrictor product in percentage contraction (%) taking as 100% the value obtained for treatment with 80 mM KCl at step 1 to verify vessel viability.
(§3) The method used for this study is identical to the method used in Example 1. To perform myographic studies the vein is placed at a pre-tension (g) corresponding to physiological pressure of 18 mmHg while the artery is placed at a pre-tension of 90 mmHg since an artery wall is thicker than a vein wall.
(§4) The myograph apparatus has four independent chambers. Therefore four vessel segments were mounted in parallel in each study. Each compound was subjected to dose-response evaluation for each type of vessel (n=1). The vessel was therefore treated with successive, increasing concentrations of product added every 3 minutes to the myograph chamber. The tested compounds were naratriptan, sumatriptan, almotriptan and Rizatriptan.

[2] = system: human subcutaneous artery; experiment: Vascular tonicity of human subcutaneous arteries ex vivo, myography; assay type: cell-based; conditions: for EC50: sc, dose-response
Procedure: as §1, §2, §3, §4

[3] = system: neurogenic inflammation induced in mouse ear; experiment: Neurogenic inflammation assay, mouse ear, reziniferatoxin (RTX); assay type: in vivo
Procedure: The compound was then tested in a water/ethanol carrier to increase solubility.

| EC50 (human subcutaneous veins) | EC50 ([2]; n=1) | SMILES | Total skin [1] | Mass balance [1] | Emax (% max. contraction vs. 80 mM KCL) (human subcutaneous veins) | Emax (% max. contraction vs. 80 mM KCl) ([2]; n=1) | Total skin ([1]; listed as Naratriptan hydrochloride) | Inhibition of neurogenic inflammation ([3]; 1% in acetone carrier, up to 45 minutes after treatment, single RTX application) | Inhibition of neurogenic inflammation ([3]; 1% topical in water/ethanol carrier, treatment time 15 minutes) | Persistent effect on the human vein after successive washings, time after removal of the compound (human subcutaneous veins; Example 1, after removal of compound from the chamber) | Emax (% max. contraction vs. 80 mM KCl) ([2]; n=1, listed as sumatriptan) |
| --- | --- | --- | --- | --- | --- | --- | --- | --- | --- | --- | --- |
| 62 nM |  | CN(C)CCc1c[nH]c2ccc(CS(=O)(=O)N3CCCC3)cc12 [Almotriptan, almotriptan] | 1.86 % applied dose | 94.16 % applied dose | 97% |  |  |  |  |  |  |
| 93 nM | 217 nM | CN(C)CCc1c[nH]c2ccc(Cn3cncn3)cc12 [Rizatriptan, rizatriptan] |  |  | 94% | 54% |  |  |  |  |  |
| 65 nM | 138 nM | CNS(=O)(=O)Cc1ccc2[nH]cc(CCN(C)C)c2c1 [Sumatriptan, sumatriptan] |  |  | 101% | 61% |  |  |  |  | 70% |

| SMILES | EC50 (human subcutaneous veins) | EC50 ([2]; n=1) | Total skin [1] | Mass balance [1] | Emax (% max. contraction vs. 80 mM KCL) (human subcutaneous veins) | Emax (% max. contraction vs. 80 mM KCl) ([2]; n=1) | Total skin ([1]; listed as Naratriptan hydrochloride) | Inhibition of neurogenic inflammation ([3]; 1% in acetone carrier, up to 45 minutes after treatment, single RTX application) | Inhibition of neurogenic inflammation ([3]; 1% topical in water/ethanol carrier, treatment time 15 minutes) | Persistent effect on the human vein after successive washings, time after removal of the compound (human subcutaneous veins; Example 1, after removal of compound from the chamber) | Emax (% max. contraction vs. 80 mM KCl) ([2]; n=1, listed as sumatriptan) |
| --- | --- | --- | --- | --- | --- | --- | --- | --- | --- | --- | --- |
| CNS(=O)(=O)CCc1ccc2[nH]cc(C3CCN(C)CC3)c2c1 [Naratriptan, N-methyl-2-[3-(1-methylpiperidin-4-yl)-1H-indol-5-yl]ethanesulfonamide] | 13 nM | 20 nM | 3.46 % applied dose | 91.22 % applied dose | 105% | 82% | 3.61 % applied dose | significantly inhibited | significant inhibition | ≤ 90 min |  |
